Measured values from patent publication US11433081B2 (priority 2018, dated 2022).

Test system: Chronic Pain
Conditions: human, in vivo, po

COc1ccc2c3c1O[C@H]1C(=O)CC[C@@]4(O)[C@@H](C2)N(C)CC[C@]314 [Oxycodone]
Pain level: 3 /10
